Measurements from paper PMC8412337, “Alpha-single chains of collagen type VI inhibit the fibrogenic effects of triple helical collagen VI in hepatic stellate cells” (PLoS ONE, 2021).

How the values were obtained:
[1] = tested on: Bax and Bcl-2 in activated HSCs; assay: Western-blot analysis of Bax and Bcl-2; format: cell-based, rat; conditions: densitometry, three independent experiments
Description: Dislodged cells were centrifuged at 800 x g/10 min and lysed with 100 μl lysis buffer. The protein concentration was determined using NanoOrange® Protein Quantitation Kit (Life Technologies) according to the manufacturer’s instructions. Briefly, protein solutions were mixed with the diluted NanoOrange reagent in 1.5 ml polypropylene tubes and heated at 95°C for 10 min in a thermomixer (Peqlab, Erlangen, Germany). Tubes were centrifuged and 200 μl of each sample were transferred to a black 96 well flat-bottom plate (Greiner BioOne, Frickenhausen, Germany). The emitted fluorescence was assessed at 570 nm in a SpectraMax Gemini EM (Molecular Devices, Biberach an der Riß, Germany). Protein concentrations were calculated from a bovine serum albumin standard curve. Equivalent amounts (10–50 μg) of protein were used in […]. Sample buffer (1:1) was added and the aliquots (20 μl final volume) were boiled for 5 min and subjected to 12% SDS-PAGE. After blocking for 1 h at room temperature in 10 mmol Tris-HCl, pH 7.5, 100 mmol NaCl, containing 0.1% Tween 20 and 3% bovine serum albumine (BSA), nitrocellulose-membranes were incubated either with polyclonal rabbit anti-rat antibodies to Bax (1:1000, sc-493), Bcl-2 (1:1000, sc783, both Santa Cruz, Santa Cruz, USA), α-actin (1:4000, A2547, Sigma) or β-actin (1:10,000, A5441, Sigma). Membranes were then washed in 10 mmol Tris-HCl, 100 mmol NaCl, 0.1% Tween 20, pH 7.5, and incubated with anti-rabbit IgG coupled to peroxidase (1:1000, A4416, Sigma) for 1 h at room temperature or directly developed (RC20H). Bands were detected with the ECL chemiluminescence reagent (Amersham-Pharmacia, Freiburg, Germany). After stripping in 0.1 M glycin-HCl, pH 2, for 20 min at room temperature, membranes were reprobed with appropriate primary and secondary antibodies. Band intensities were analyzed by densitometry and normalized to β-actin.

CFSC = assay: Fibrosis-associated gene expression, quantitative real-time PCR; format: cell-based, rat
Description: 30 mg/l CVI, 133 mg/l of the monomeric alpha chains of CVI and/or TGF-β (2 ng/ml) were added after 24 h. […] Reverse transcribed complementary DNA templates were amplified by quantitative real-time polymerase chain reaction (PCR; Roche Diagnostics, Mannheim, Germany) using fluorogenic probes labeled with 6-carboxy-fluorescein and 6-carboxy-tetramethylrhodamin (Sigma- Genosys, Steinheim, Germany) and primer pairs (Invitrogen, Karlsruhe, Germany) specific for fibrosis-associated genes (for sequences see S2 Table). Gene expressions were normalized to glyceraldehyde phosphate dehydrogenase (GAPDH).

primary rat HSC = assay: Cell Death Detection ELISA (oligonucleosomal DNA fragments); format: cell-based; conditions: OD of sample divided by OD of 10% FBS group, three independent experiments
Description: 10^5 cells were seeded in 6-well plates and treated with starving medium or medium plus CI, CVI or 10% FBS. After 24 or 48 h floating and adherent cells were pooled, and lysed with 500 μl of 1% SDS, 10 mM Tris, pH 7.4 (lysis buffer), for 30 min at 4°C. Lysed cells were transferred to 1.5 ml Eppendorf tubes and centrifuged at 13,000 rpm for 20 min, to separate low molecular weight DNA (oligonucleosome-sized fragments derived from apoptotic cells) from high molecular weight DNA (from viable cells). 400 μl of the supernatant containing oligonucleosomes were transferred to another Eppendorf tube and diluted 1:5 with lysis buffer. 100 μl aliquots were used for the Cell Death Detection ELISA, which was performed according to the manufacturer’s instructions (Boehringer Mannheim, Germany). In brief, antibodies against histones were coated onto 96-wells, 100 μl lysate-samples containing oligonucleotides and histones were added and incubated for one hour. After washing, wells were incubated with anti-double strand DNA antibody coupled to peroxidase for one hour. After reaction with peroxidase substrate, absorbance was measured at 405 nm using an ELISA reader. Background values (lysis-buffer alone) were subtracted, and results are shown as enrichment factor [enrichment factor: OD (optical density) of the sample (apoptotic cells) divided by the OD of the corresponding control (viable cells, 10% FBS-group). A defined positive control was prepared using a hypertonic buffer, containing 10 mM Tris, 400 mM NaCl, 5 mM CaCl2 and 10 mM MgCl2, instead of starving medium.

“CVI: Human collagen VI isolated from placentas by pepsin digestion; triple helical, soluble” was tested, and the “Bax to Bcl-2 ratio” value ([1]; 24 hours culture after serum starvation) was 1.0, the “Bax protein level, fold lower compared to the medium or CI group” value ([1]; 24 hours, p<0.05) was 6-7 fold and the “kinetics of CI expression compared with TGF-β” value (CFSC; CFSC, medium containing 0.2% FBS, S3 Fig) was “slightly decreased and delayed”. For the same substance, the “αSMA, CI and TGF-β expression” value (CFSC; serum-starved CFSC, 30 mg/l CVI, 24 h, qPCR normalized to GAPDH) was “potently induced”, the “reduction of the expression of MMP-3” value (CFSC; serum-starved CFSC, 24 h, TGF-β 2 ng/ml, CVI 30 mg/l, qPCR normalized to GAPDH) was “only slightly reduced” and the “expression of TIMP-1” value (CFSC; serum-starved CFSC, 24 h, qPCR normalized to GAPDH) was “stimulated the expression of TIMP-1”. For the same substance, the “enrichment factor of oligonucleosomal fragments” value (primary rat HSC; after 24 hours) was 2 and the “enrichment factor of oligonucleosomal fragments” value (primary rat HSC; after 48 hours) was 6.
